Experimental data reported in EP2406206B1, “TETRAHYDRONAPHTHALEN-2-OL DERIVATIVES” (MSD Oss B.V., priority 2009, dated 2010).

Experiments:
[1] = target: human estrogen receptor β receptor (hERβ) (Homo sapiens, UniProt Q92731); assay: ERβ transactivation bioassay in recombinant CHO cells (rat oxytocin promoter, luciferase reporter); assay type: cell-based; settings: for ERβ/ERα ratio: ERβ agonistic selectivity over ERα, transactivation data; for ERβ eudismic ratio: ratio of the activities of the eutomer and the distomer on ERβ; for EC50: transactivation of luciferase via hERβ in CHO cells, read-out: ERβ agonistic EC50
Sequence of human estrogen receptor β receptor (hERβ) (Q92731 whole entry): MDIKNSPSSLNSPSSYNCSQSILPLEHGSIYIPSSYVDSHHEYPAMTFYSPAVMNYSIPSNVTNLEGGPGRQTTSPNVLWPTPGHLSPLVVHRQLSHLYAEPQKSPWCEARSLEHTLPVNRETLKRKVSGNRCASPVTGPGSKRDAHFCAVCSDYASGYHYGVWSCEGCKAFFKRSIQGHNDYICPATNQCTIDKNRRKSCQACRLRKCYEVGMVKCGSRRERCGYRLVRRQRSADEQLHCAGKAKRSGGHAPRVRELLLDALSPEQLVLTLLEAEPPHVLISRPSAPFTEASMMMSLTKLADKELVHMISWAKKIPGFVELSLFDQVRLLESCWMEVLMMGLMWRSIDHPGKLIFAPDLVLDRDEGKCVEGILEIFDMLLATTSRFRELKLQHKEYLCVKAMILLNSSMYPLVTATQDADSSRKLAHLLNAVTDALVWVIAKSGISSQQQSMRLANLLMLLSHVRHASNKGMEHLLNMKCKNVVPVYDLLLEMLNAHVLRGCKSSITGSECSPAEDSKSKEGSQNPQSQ
Description: (§1) The estrogenic and antiestrogenic activity of compounds was determined in an in vitro bioassay with recombinant Chinese hamster ovary (CHO) cells stably co-transfected with the human estrogen receptor α (hERα) or β receptor (hERβ), the rat oxytocin promoter (RO) and the luciferase reporter gene (LUC). The estrogenic activity of a test compound to stimulate the transactivation of the enzyme luciferase mediated via the estrogen receptors hERα or hERβ is expressed in nM. The assay was performed as described by De Gooyer et al., Steroids 68 (2003), 21-30. Table 7. ERβ and ERα transactivation data

[2] = target: T1, human estrogen receptor α (hERα) (Homo sapiens, UniProt P03372); assay: ERα transactivation bioassay in recombinant CHO cells (rat oxytocin promoter, luciferase reporter); assay type: cell-based; settings: ratio of the activities of the eutomer and the distomer on ERα
T1 sequence (P03372 1-595): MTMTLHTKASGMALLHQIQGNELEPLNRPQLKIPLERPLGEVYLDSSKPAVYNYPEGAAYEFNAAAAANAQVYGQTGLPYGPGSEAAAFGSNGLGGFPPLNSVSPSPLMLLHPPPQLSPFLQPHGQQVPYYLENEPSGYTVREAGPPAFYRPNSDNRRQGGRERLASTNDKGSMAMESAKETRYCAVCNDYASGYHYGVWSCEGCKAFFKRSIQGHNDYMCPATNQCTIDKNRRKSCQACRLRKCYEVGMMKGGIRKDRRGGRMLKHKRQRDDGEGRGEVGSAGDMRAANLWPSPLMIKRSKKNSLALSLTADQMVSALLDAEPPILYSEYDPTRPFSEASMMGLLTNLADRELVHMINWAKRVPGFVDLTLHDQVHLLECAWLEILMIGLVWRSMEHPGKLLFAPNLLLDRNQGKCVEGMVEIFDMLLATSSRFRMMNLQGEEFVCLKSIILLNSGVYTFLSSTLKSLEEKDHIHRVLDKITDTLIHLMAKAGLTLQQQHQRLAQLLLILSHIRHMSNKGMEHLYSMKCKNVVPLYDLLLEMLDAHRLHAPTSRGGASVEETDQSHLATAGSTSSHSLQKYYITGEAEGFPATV
Description: as §1

[3] = system: acinar epithelium of the ventral prostate; assay: short-term prostate apoptosis and proliferation model in castrated rats; assay type: in vivo, Wistar rats
Description: Selected compounds were tested in a short-term prostate apoptosis and proliferation model in castrated rats.
Intact mature male Wistar rats (350-400 g) were castrated and left to recover for 1 week. 7 days after the castration rats received a single subcutaneous injection of testosterone buciclate (TB), a long-acting testosterone ester, in arachis oil (20 mg/kg) with a volume of 1 ml/kg and were subsequently treated once daily orally for 3 days with the test substance at doses between 0 and 1000 µg/kg, dissolved in gelatin/mannitol and dosed with a volume of 1 ml/kg.
At the end of the experiment rats were euthanized, the prostates were removed, weighed and processed for histology.
Apoptosis of the acinar epithelium of the ventral prostate was determined with TUNEL ([…]) staining. Apoptotic cells show nuclear DNA fragmentation and the TUNEL assay end-labels the fragmented DNA by incorporating biotinylated dUTP at the 3'-OH DNA ends using the enzyme Terminal deoxynucleotidyl Transferase (TdT). Positively stained cells are counted per acinus (glandular unit) in the ventral prostate. Proliferation of the acinar epithelium of the ventral prostate was determined by immunohistochemical staining with an antibody directed against Ki67 (clone Mib5). Positively stained cells are counted per acinus (glandular unit) in the ventral prostate. Statistical significance is determined as compared to TB alone by one-way ANOVA.

[4] = metabolic stability in human hepatocytes; assay type: in vitro ADME; settings: cryopreserved human hepatocytes in suspension, tetrahydronaphthalen-2-ol, 37°C, sampled 0-120 min, LC-MS/MS, read-out: Human hepatocyte T1/2
Description: A number of compounds 9, 11 and 12 were tested on metabolic stability in human hepatocytes. The hepatic stability was compared to corresponding chroman compounds 25, 26 or 27 (see structures below).
Test compounds were diluted to 3 µM in incubation medium. Then 40 µl of the 3 µM test compounds was pipetted into a 96 well microtiter plate (flat bottom). Hepatocytes (stored at -140 °C) were thawed in a 37°C water bath. The cells were resuspended into pre-warmed thawing medium and were centrifuged for 5 minutes at 50g at room temperature. The supernatant was discarded and the remaining cell pellet was resuspended in warm incubation medium and diluted to 7.5 E5 cells/ml. Then 80 µl of the cell suspension was added to each well of the 96 well microtiter plate containing the test compounds. The resulting mixture was incubated at 37°C and was sampled at t=0, 5, 30, 60, and 120 min. The samples were analyzed by LC-MS/MS to determine the content of unchanged test compound. Based on the rate of reduction of the content of test compound over time, the half-live (T1/2) was calculated. Metabolic stability in human hepatocytes

Row | SMILES | ERβ/ERα ratio [1] | ERβ eudismic ratio [1] | EC50 [1] | ERα eudismic ratio [2] | epithelial cell proliferation ([3]; Ki67 staining, ventral prostate, at 3 µg/kg orally, compared to TB-alone treated rats) | epithelial cell apoptosis ([3]; TUNEL staining, ventral prostate, castrated rats given TB, treated once daily orally for 3 days, compared to TB alone) | minimal active dose (MAD) ([3]; increase in epithelial cell apoptosis, once daily orally for 3 days) | half-life at 1 µM [4]
1 | C[C@H]1[C@@H](c2ccc(O)cc2)Cc2ccc(O)cc2[C@H]1Cc1ccccc1F (single isomer, unassigned) [Compound 11a] | 189 | >263 | 0.38 nM | >1.4 | decrease | statistically significant (p<0.01) increase | 3 µg/kg | 40.5 min
2 | CC[C@H]1[C@@H](c2ccc(O)c(F)c2)Cc2ccc(O)cc2[C@H]1Cc1ccccc1F (single isomer, unassigned) [Compound 11q] | >169 | 7 | 0.59 nM | <0.3 |  |  |  | 82.2 min
3 | CC[C@H]1[C@@H](c2ccc(O)cc2)Cc2ccc(O)cc2[C@H]1Cc1ccccc1F (single isomer, unassigned) [Compound 11b] | 167 | 93 | 0.15 nM | 0.9 |  |  |  | 40.7 min
